Toxic doses and inconclusive results are not listed.
Tested on: BDF1 mice, B16 melanoma ip, median survival T/C
Assay: NCI In Vivo Anticancer Drug Screen. Data for tumor model B16 Melanoma (intraperitoneal) in B6D2F1 (BDF1) mice
Conditions: endpoint: median survival time, higher = longer survival
In short: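 Antitumor activity is assessed in mice bearing a transplanted tumor, with survival or tumor size compared against vehicle-dosed controls and expressed as T/C.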

[1] = dose: 12.5 mg/kg/injection, schedule: Q01DX009 (ip), vehicle: saline with Tween-80
[2] = dose: 25.0 mg/kg/injection, schedule: Q01DX009 (ip), vehicle: saline with Tween-80
[3] = dose: 6.25 mg/kg/injection, schedule: Q01DX009 (ip), vehicle: saline
[4] = dose: 12.5 mg/kg/injection, schedule: Q01DX009 (ip), vehicle: saline
[5] = dose: 25.0 mg/kg/injection, schedule: Q01DX009 (ip), vehicle: saline
[6] = dose: 100.0 mg/kg/injection, schedule: Q01DX009 (ip), vehicle: Klucel (hydroxypropylcellulose) (HPC)
[7] = dose: 200.0 mg/kg/injection, schedule: Q01DX009 (ip), vehicle: Klucel (hydroxypropylcellulose) (HPC)
[8] = dose: 25.0 mg/kg/injection, schedule: Q01DX009 (ip), vehicle: water
[9] = dose: 50.0 mg/kg/injection, schedule: Q01DX009 (ip), vehicle: water
[10] = dose: 1.25 mg/kg/injection, schedule: Q01DX009 (ip), vehicle: saline
[11] = dose: 2.5 mg/kg/injection, schedule: Q01DX009 (ip), vehicle: saline
[12] = dose: 5.0 mg/kg/injection, schedule: Q01DX009 (ip), vehicle: saline
[13] = dose: 12.5 mg/kg/injection, schedule: Q01DX009 (ip), vehicle: Klucel (hydroxypropylcellulose) (HPC)
[14] = dose: 25.0 mg/kg/injection, schedule: Q01DX009 (ip), vehicle: Klucel (hydroxypropylcellulose) (HPC)
[15] = dose: 50.0 mg/kg/injection, schedule: Q01DX009 (ip), vehicle: Klucel (hydroxypropylcellulose) (HPC)
[16] = dose: 50.0 mg/kg/injection, schedule: Q01DX009 (ip), vehicle: saline with Tween-80
[17] = dose: 100.0 mg/kg/injection, schedule: Q01DX009 (ip), vehicle: saline with Tween-80
[18] = dose: 200.0 mg/kg/injection, schedule: Q01DX009 (ip), vehicle: saline with Tween-80
[19] = dose: 400.0 mg/kg/injection, schedule: Q01DX009 (ip), vehicle: saline with Tween-80
[20] = dose: 100.0 mg/kg/injection, schedule: Q04DX003 (ip), vehicle: Klucel (hydroxypropylcellulose) (HPC)
[21] = dose: 50.0 mg/kg/injection, schedule: Q01DX009 (ip), vehicle: carboxymethylcellulose (CMC)

CNC(=S)N/N=C(/C)CCC/C(C)=N/NC(=S)NC
T/C (dose: 6.25 mg/kg/injection, schedule: Q01DX009 (ip), vehicle: saline with Tween-80): 94 % of control
T/C [1]: 94 % of control
T/C [2]: 97 % of control

[Br][Pt].[NH-]CC[N-]CC[NH-]
T/C (dose: 3.13 mg/kg/injection, schedule: Q01DX009 (ip), vehicle: saline): 108 % of control
T/C [3]: 90 % of control
T/C [4]: 91 % of control
T/C [5]: 91 % of control

Cc1cccc(C)c1N1C(=O)CCC1=O
T/C [6]: 101 % of control
T/C [7]: 95 % of control
T/C (dose: 400.0 mg/kg/injection, schedule: Q01DX009 (ip), vehicle: Klucel (hydroxypropylcellulose) (HPC)): 102 % of control

COc1cccc(C(=O)c2ccncc2C)c1OC
T/C [8]: 98 % of control
T/C [9]: 96 % of control
T/C (dose: 100.0 mg/kg/injection, schedule: Q01DX009 (ip), vehicle: water): 96 % of control

COC(=O)C(C#N)=C(C)C
T/C (dose: 10.0 mg/kg/injection, schedule: Q01DX009 (ip), vehicle: saline with Tween-80): 100 % of control
T/C (dose: 20.0 mg/kg/injection, schedule: Q01DX009 (ip), vehicle: saline with Tween-80): 98 % of control
T/C (dose: 40.0 mg/kg/injection, schedule: Q01DX009 (ip), vehicle: saline with Tween-80): 94 % of control

Cc1ccc(CNc2ccc(Br)cc2)cc1
T/C [6]: 94 % of control
T/C [7]: 91 % of control

COc1cccc2c1C(=O)c1c(O)c3c(c(O)c1C2=O)C[C@@](O)(C(C)=O)C[C@@H]3OC1CC(N2CCC(OC)CC2)C(O)C(C)O1 (stereo partly specified)
T/C (dose: 1.56 mg/kg/injection, schedule: Q01DX001 (ip), vehicle: water): 123 % of control
T/C (dose: 6.25 mg/kg/injection, schedule: Q01DX001 (ip), vehicle: water): 162 % of control

O=NN(CCCl)C(=O)NC1[C@H](O)CCC[C@@H]1O (stereo partly specified)
T/C (dose: 0.63 mg/kg/injection, schedule: Q01DX009 (ip), vehicle: saline): 159 % of control
T/C [10]: 208 % of control
T/C [11]: 295 % of control
T/C [12]: 295 % of control

N#CCCN(C(=O)COc1ccc(Cl)cc1Cl)C1CCCCC1
T/C [13]: 99 % of control
T/C [14]: 103 % of control
T/C [15]: 98 % of control

COc1ccc(/C=C2\C(=O)OC(=O)\C2=C\c2ccc(OC)c(OC)c2)cc1OC
T/C [13]: 98 % of control
T/C [14]: 90 % of control

CC(=O)Oc1c(Br)cc(Br)cc1-c1ccccc1
T/C [16]: 98 % of control
T/C [17]: 94 % of control
T/C [18]: 98 % of control
T/C [19]: 91 % of control

Nc1ncc(N)c(N)n1
T/C (dose: 50.0 mg/kg/injection, schedule: Q01DX009 (ip), vehicle: saline): 102 % of control
T/C (dose: 100.0 mg/kg/injection, schedule: Q01DX009 (ip), vehicle: saline): 112 % of control
T/C (dose: 200.0 mg/kg/injection, schedule: Q01DX009 (ip), vehicle: saline): 108 % of control

Cc1cccc(C)c1NC(=O)C(C)C
T/C [17]: 100 % of control
T/C [18]: 102 % of control
T/C [19]: 95 % of control

CC(Br)C(=O)NC(C)C(=O)O (stereo unspecified)
T/C [1]: 93 % of control
T/C [2]: 89 % of control
T/C [16]: 90 % of control

CCN1C=C/C(=C\C=C/c2cc[n+](CC)c3ccccc23)c2ccccc21
T/C (dose: 6.0 micrograms/kg/injection, schedule: Q01DX009 (ip), vehicle: saline): 106 % of control
T/C (dose: 12.0 micrograms/kg/injection, schedule: Q01DX009 (ip), vehicle: saline): 110 % of control
T/C (dose: 25.0 micrograms/kg/injection, schedule: Q01DX009 (ip), vehicle: saline): 115 % of control
T/C (dose: 50.0 micrograms/kg/injection, schedule: Q01DX009 (ip), vehicle: saline): 106 % of control

C=CCN(CC=C)C(=O)CCN1CC1
T/C [10]: 100 % of control
T/C (dose: 1.25 mg/kg/injection, schedule: Q04DX003 (ip), vehicle: saline): 102 % of control
T/C [11]: 100 % of control
T/C (dose: 2.5 mg/kg/injection, schedule: Q04DX003 (ip), vehicle: saline): 100 % of control
T/C [12]: 100 % of control
T/C (dose: 5.0 mg/kg/injection, schedule: Q04DX003 (ip), vehicle: saline): 105 % of control

Cc1cc(C)c(NC(=O)Nc2ccccc2C)c(C)c1
T/C (dose: 25.0 mg/kg/injection, schedule: Q04DX003 (ip), vehicle: Klucel (hydroxypropylcellulose) (HPC)): 102 % of control
T/C (dose: 50.0 mg/kg/injection, schedule: Q04DX003 (ip), vehicle: Klucel (hydroxypropylcellulose) (HPC)): 97 % of control
T/C [20]: 90 % of control

CN(C)CCCC1c2ccccc2Oc2ccc(C(F)(F)F)cc21 (stereo unspecified)
T/C (dose: 3.12 mg/kg/injection, schedule: Q01DX009 (ip), vehicle: saline): 86 % of control
T/C [3]: 88 % of control
T/C [4]: 100 % of control
T/C [5]: 97 % of control

CN1CN(C)CN(C)C1
T/C [5]: 118 % of control

Cc1ccc(S(=O)(=O)NC(CSSCC(NS(=O)(=O)c2ccc(C)cc2)C(=O)OC(C)(C)C)C(=O)OC(C)(C)C)cc1 (stereo unspecified)
T/C [15]: 107 % of control

C=C1C(=O)OC2/C=C(\CO)C(OC(C)=O)CC(O)/C(C)=C/C(OC(=O)C(C)CC)C12 (stereo unspecified)
T/C (dose: 1.56 mg/kg/injection, schedule: Q01DX009 (ip), vehicle: Klucel (hydroxypropylcellulose) (HPC)): 108 % of control
T/C (dose: 3.13 mg/kg/injection, schedule: Q01DX009 (ip), vehicle: Klucel (hydroxypropylcellulose) (HPC)): 101 % of control
T/C (dose: 6.25 mg/kg/injection, schedule: Q01DX009 (ip), vehicle: Klucel (hydroxypropylcellulose) (HPC)): 109 % of control

CNC(=O)Nc1ccccc1C(=O)NN
T/C [14]: 106 % of control
T/C [15]: 100 % of control
T/C [6]: 100 % of control
T/C [7]: 97 % of control

O=S(=O)(NC(=S)S)c1ccccc1
T/C (dose: 12.5 mg/kg/injection, schedule: Q01DX009 (ip), vehicle: water): 91 % of control
T/C [8]: 94 % of control
T/C [9]: 86 % of control

c1ccc2c(c1)Cc1cc3ccccc3nc1-2
T/C [20]: 102 % of control
T/C (dose: 200.0 mg/kg/injection, schedule: Q04DX003 (ip), vehicle: Klucel (hydroxypropylcellulose) (HPC)): 114 % of control
T/C (dose: 400.0 mg/kg/injection, schedule: Q04DX003 (ip), vehicle: Klucel (hydroxypropylcellulose) (HPC)): 98 % of control

CCO
T/C (dose: 250.0 mg/kg/injection, schedule: Q01DX009 (ip), vehicle: saline): 109 % of control
T/C (dose: 500.0 mg/kg/injection, schedule: Q01DX009 (ip), vehicle: saline): 86 % of control
T/C (dose: 1000.0 mg/kg/injection, schedule: Q01DX009 (ip), vehicle: saline): 104 % of control
T/C (dose: 2000.0 mg/kg/injection, schedule: Q01DX009 (ip), vehicle: saline): 93 % of control

Cc1cccc(NC(=O)CCl)c1
T/C [21]: 109 % of control
T/C (dose: 100.0 mg/kg/injection, schedule: Q01DX009 (ip), vehicle: carboxymethylcellulose (CMC)): 101 % of control

Oc1ccc(Cl)c2cccnc12
T/C (dose: 12.5 mg/kg/injection, schedule: Q01DX009 (ip), vehicle: carboxymethylcellulose (CMC)): 90 % of control
T/C (dose: 25.0 mg/kg/injection, schedule: Q01DX009 (ip), vehicle: carboxymethylcellulose (CMC)): 96 % of control
T/C [21]: 97 % of control

CS(=O)(=O)Nc1ccc(Nc2c3ccccc3nc3cc(Cl)ccc23)cc1
T/C (dose: 3.0 mg/kg/injection, schedule: Q01DX009 (ip), vehicle: saline with Tween-80): 152 % of control
T/C (dose: 37.5 mg/kg/injection, schedule: Q01DX001 (ip), vehicle: saline sonified): 169 % of control
T/C (dose: 75.0 mg/kg/injection, schedule: Q01DX001 (ip), vehicle: saline sonified): 152 % of control

CCCCCCCCCCCCCOC(=O)CC(C(=O)OCCCCCCCCCCCCC)S(=O)(=O)O (stereo unspecified)
T/C [13]: 106 % of control
T/C [14]: 108 % of control
T/C [15]: 106 % of control
T/C [6]: 93 % of control
T/C [7]: 111 % of control

From PubChem BioAssay AID192 (DTP/NCI, 2004)
